Molecules are shown by their SMILES.

This assay deals with Recombinant human ATX (Homo sapiens (Human), UniProt Q13822). Briefly: Assessing ATX inhibition (choline release, Amplex Red fluorescence). In kind it is biochemical. As to conditions: ATX 10 nM, LPC 18:1 10 μM, pre-incubated at 37° C. for 20 minutes; mean of n≥2. As for the experimental part: Reagents—LPC (oleoyl (18:1)) was purchased from Avanti Polar Lipids (Alabaster, Ala.) and solubilized in methanol to 20 mM. Amplex Red was obtained from Invitrogen Life Technologies (Paisley, UK) and dissolved in DMSO to 10 mM. Choline oxidase and horseradish peroxidase (HRP) were obtained from Sigma Aldrich (Dorset, UK) and dissolved in HBSS to 20 U/ml and 200 U/ml respectively. All reagents were stored at −20° C. in single use aliquots. All experimental measurements were performed in assay buffer made up immediately prior to use (HBSS, 0.01% BSA essentially fatty acid free).
Protein—Recombinant human ATX was prepared at Novartis (Basel, CH) in a human embryonic kidney (HEK) cell preparation, and stored in single use aliquots of […] (26 μM) stocks stored at −80° C.
Method—All experimental measurements should be performed in black 384 well polystyrene (low volume, round bottom, Corning (3676)) plates. PerkinElmer EnVision (Fluorescence Intensity/Absorbance Monochromator) or Tecan Infinite 200 PRO series plate reader was used to detect change in fluorescent intensity.
Assessing ATX inhibition—ATX activity was determined by measurement of released choline in reactions containing ATX (10 nM), choline oxidase (0.1 U/ml), HRP (100 U/ml), amplex red (50 μM) and LPC 18:1 (10 μM). Compounds of the invention should be prepared as 10 point serial dilutions from 1 μM in duplicate and pre-incubated with ATX at 37° C. for 20 minutes prior to the addition of remaining reagents. The liberated choline was measured from changes in fluorescence intensity (λex 530 nm, λm 590 nm) of the product resurofin at 37° C. every 2 minutes over a 40-minute period. ATX activity was measured as a slope of the linear portion of the progress curve, typically between 14 to 24 minutes.
Data analysis—Slope data was exported to Graphpad prism (Graphpad software, San Diego, Calif.) where data was fitted to equation 1. Y=Bottom+(Top−Bottom)/(1+10^((Log IC50−X)*HillSlope)) Equation 1
IC50 values were determined from the concentration of compound that reduced the total activity by 50% and represent the mean of n≥2.

One may read the IC50 as the concentration that gives 50% inhibition. Turning to `Cc1nnn(Cc2cc(C(F)(F)F)ccc2/C=C/C(=O)N2CCN(Cc3ccc(OCCF)cn3)C[C@H]2C)n1`, the IC50 was found to be 3 nM.

In the case of `Cc1nnn(Cc2cc(Cl)ccc2/C=C/C(=O)N2CCN(Cc3ccc(OCCOCCF)cn3)C[C@H]2C)n1`, the IC50 came to 5 nM.

As to `Cc1nnn(Cc2cc(Cl)ccc2/C=C/C(=O)N2CCN(Cc3ccc(OCCF)cn3)C[C@H]2C)n1`, the IC50 amounted to 4 nM.

As to `Cc1nnn(Cc2cc(C(F)(F)F)ccc2CCC(=O)N2CCN(Cc3ccc(OCCF)cn3)C[C@H]2C)n1`, the IC50 was 2 nM.

`Cc1nnn(Cc2cc(C(F)(F)F)ccc2/C=C/C(=O)N2CCN(Cc3ccc(OCCOCCF)cn3)C[C@H]2C)n1`: the IC50 turned out to be 6 nM.

Regarding `Cc1nnn(Cc2cc(C(F)(F)F)ccc2/C=C/C(=O)N2CCN(Cc3coc(CF)n3)C[C@H]2C)n1`, the IC50 was found to be 1.4 nM.

In the case of `COc1cc(CN2CCN(C(=O)/C=C/c3ccc(Cl)cc3Cn3nnc(C)n3)CC2)ccn1`, the concentration for half-maximal inhibition (IC50) worked out at 13 nM.

The record behind these values is US10450298B2, “PET Imaging agents” (Novartis AG, priority 2015, dated 2019).
